Patent US20240158392A1 (Janssen Biotech, Inc., priority 2021, published 2024)

Target: SIK2 (Homo sapiens, UniProt Q9H0K1)
Assay: SIK2 Enzymatic Assay High Version 2 (High ATP)
Format: biochemical
Details: not given
How it was run: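 At room temperature, enzyme (6 nM, 2× final) was preincubated with compound for 30 min, then 6 mM ATP and 400 μM HDAC5tide (both 2× final) were added for 2 h. ADP formed was measured by ADP-Glo Max (2 h reagent, 1 h detection) using luminescence.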

SIK2, sequence (Q9H0K1 whole entry, species assumed): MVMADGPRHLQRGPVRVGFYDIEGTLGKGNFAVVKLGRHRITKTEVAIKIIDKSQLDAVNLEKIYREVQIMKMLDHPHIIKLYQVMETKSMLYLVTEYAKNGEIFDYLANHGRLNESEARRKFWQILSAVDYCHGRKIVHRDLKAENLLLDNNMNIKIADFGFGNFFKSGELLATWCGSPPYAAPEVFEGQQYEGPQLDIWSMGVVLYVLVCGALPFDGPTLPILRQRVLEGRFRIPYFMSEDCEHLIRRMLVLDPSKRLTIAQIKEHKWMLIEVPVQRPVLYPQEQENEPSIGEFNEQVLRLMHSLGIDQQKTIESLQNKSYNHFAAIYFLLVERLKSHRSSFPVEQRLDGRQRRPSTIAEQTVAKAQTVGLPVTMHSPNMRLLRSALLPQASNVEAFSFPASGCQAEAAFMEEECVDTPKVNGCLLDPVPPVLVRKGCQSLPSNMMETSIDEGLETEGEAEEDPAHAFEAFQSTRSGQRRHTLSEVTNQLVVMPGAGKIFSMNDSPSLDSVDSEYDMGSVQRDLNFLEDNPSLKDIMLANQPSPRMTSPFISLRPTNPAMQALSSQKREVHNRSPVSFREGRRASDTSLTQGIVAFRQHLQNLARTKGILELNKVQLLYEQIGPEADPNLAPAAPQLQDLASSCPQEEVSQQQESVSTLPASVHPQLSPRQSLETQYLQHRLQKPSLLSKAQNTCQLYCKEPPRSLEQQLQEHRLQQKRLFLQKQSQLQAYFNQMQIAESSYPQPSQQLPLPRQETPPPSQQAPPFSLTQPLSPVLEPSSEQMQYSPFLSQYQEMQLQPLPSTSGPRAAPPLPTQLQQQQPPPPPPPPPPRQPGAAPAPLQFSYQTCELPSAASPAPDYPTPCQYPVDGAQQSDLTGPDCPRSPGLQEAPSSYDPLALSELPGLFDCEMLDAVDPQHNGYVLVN

Structure (SMILES) | IC50 [µM]
Cc1cnc(Nc2cn3cc(-c4cc(C)ncc4O[C@H]4C[C@H]5COC[C@@H](C4)N5)ncc3n2)cn1 [Example 320, 6-[2-methyl-5-[[(1S,5R)-3-oxa-9-azabicyclo[3.3.1]nonan-7-yl]oxy]-4-pyridyl]-N-(5-methylpyrazin-2-yl)imidazo[1,2-a]pyrazin-2-amine] | 0.00102
CC(=O)N1[C@@H]2COC[C@H]1C[C@@H](Oc1cnc(C)cc1-c1ccn3nc(Nc4cc(C(F)(F)F)ccn4)cc3c1)C2 [Example 632, 1-((1R,5S,7s)-7-((6-methyl-4-(2-((4-(trifluoromethyl)pyridin-2-yl)amino)pyrazolo[1,5-a]pyridin-5-yl)pyridin-3-yl)oxy)-3-oxa-9-azabicyclo[3.3.1]nonan-9-yl)ethan-1-one] | 0.00121
Cc1cc(-c2ccn3nc(NC(=O)C4CC4)cc3c2)c(O[C@H]2CN(C)[C@H]2C)cn1 (single isomer, unassigned) [Example 456, (*S, *S)—N-[5-[5-(1,2-dimethylazetidin-3-yl)oxy-2-methyl-4-pyridyl]pyrazolo[1,5-a]pyridin-2-yl]cyclopropanecarboxamide] | 0.0204
Cc1cc(-c2ccn3nc(Nc4cc(C)nc(C)n4)cc3c2)c(O[C@@H]2[C@@H]3CO[C@H]2CN3)cn1 [Example 524, N-(2,6-dimethylpyrimidin-4-yl)-5-[2-methyl-5-[[(1S,4S,7R)-2-oxa-5-azabicyclo[2.2.1]heptan-7-yl]oxy]-4-pyridyl]pyrazolo[1,5-a]pyridin-2-amine] | 0.0203
CC(=O)N1[C@@H]2COC[C@H]1C[C@@H](Oc1cnc(C)cc1-c1ccn3nc(Nc4ccc(=O)n(C)n4)cc3c1)C2 [Example 637, 6-((5-(5-(((1R,5S,7s)-9-acetyl-3-oxa-9-azabicyclo[3.3.1]nonan-7-yl)oxy)-2-methylpyridin-4-yl)pyrazolo[1,5-a]pyridin-2-yl)amino)-2-methylpyridazin-3(2H)-one] | 0.00642
Cc1cc(-c2cn3cc(Nc4cncc(C)n4)nc3cn2)c(O[C@H]2C[C@H]3COC[C@@H](C2)N3)cn1 [Example 321, 6-[2-methyl-5-[[(1S,5R)-3-oxa-9-azabicyclo[3.3.1]nonan-7-yl]oxy]-4-pyridyl]-N-(6-methylpyrazin-2-yl)imidazo[1,2-a]pyrazin-2-amine] | < 0.000847
Cc1cc(-c2ccn3nc(Nc4cn(C)nn4)cc3c2)c(O[C@H]2C[C@H]3COC[C@@H](C2)N3C)cn1 [Example 414, 5-[2-methyl-5-[[(1R,5S,7s)-9-methyl-3-oxa-9-azabicyclo[3.3.1]nonan-7-yl]oxy]-4-pyridyl]-N-(1-methyltriazol-4-yl)pyrazolo[1,5-a]pyridin-2-amine] | 0.0152
Cc1cc(-c2ccn3nc(Nc4ccc(C(N)=O)cn4)cc3c2)c(O[C@H]2C[C@H]3COC[C@@H](C2)N3)cn1 [Example 376, 6-[[5-[2-methyl-5-[[(1R,5S,7s)-3-oxa-9-azabicyclo[3.3.1]nonan-7-yl]oxy]-4-pyridyl]pyrazolo[1,5-a]pyridin-2-yl]amino]pyridine-3-carboxamide] | 0.00136
CNC(=O)c1c(C)cc(Nc2cc3cc(-c4cc(C)ncc4O[C@H]4C[C@H]5COC[C@@H](C4)N5C(C)=O)ccn3n2)nc1C [Example 358, 6-[[5-[5-[[(1R,5S,7s)-9-acetyl-3-oxa-9-azabicyclo[3.3.1]nonan-7-yl]oxy]-2-methyl-4-pyridyl]pyrazolo[1,5-a]pyridin-2-yl]amino]-N,2,4-trimethyl-pyridine-3-carboxamide] | 0.00783
Cc1cc(-c2ccn3nc(NC(=O)C4CC4)cc3c2)c(O[C@@H]2[C@@H]3CO[C@H]2CN3)cn1 [Example 165, N-(5-(5-(((1S,4S,7R)-2-oxa-5-azabicyclo[2.2.1]heptan-7-yl)oxy)-2-methylpyridin-4-yl)pyrazolo[1,5-a]pyridin-2-yl)cyclopropanecarboxamide] | 0.00823
Cc1cc(-c2ccn3nc(Nc4cncnc4)cc3c2)c(O[C@H]2C[C@H]3COC[C@@H](C2)N3C)cn1 [Example 415, 5-[2-methyl-5-[[(1S,5R,7s)-9-methyl-3-oxa-9-azabicyclo[3.3.1]nonan-7-yl]oxy]-4-pyridyl]-N-pyrimidin-5-yl-pyrazolo[1,5-a]pyridin-2-amine] | < 0.000847
Cc1cc(-c2ccn3nc(Nc4ccncn4)cc3c2)c(O[C@H]2C[C@H]3COC[C@@H](C2)N3)cn1 [Example 395, 5-[2-methyl-5-[[(1R,5S,7s)-3-oxa-9-azabicyclo[3.3.1]nonan-7-yl]oxy]-4-pyridyl]-N-pyrimidin-4-yl-pyrazolo[1,5-a]pyridin-2-amine] | 0.000851
Cc1cc(-c2ccn3nc(N)cc3c2)c(O[C@H]2C[C@H]3COC[C@@H](C2)N3)cn1 [Example 405, 5-(5-(((1R,5S,7s)-3-oxa-9-azabicyclo[3.3.1]nonan-7-yl)oxy)-2-methylpyridin-4-yl)pyrazolo[1,5-a]pyridin-2-amine] | < 0.000847

Same assay, conditions: enzyme 6 nM, 6 mM ATP and 400 μM HDAC5tide (each 2× final concentration); 30 minutes pre-incubation, 2 hours; ADP-Glo Max luminescence; read-out: SIK2 high ATP IC50 (μM) (Test Example 2)

Structure (SMILES) | IC50 [µM]
Cc1cc(-c2cn3cc(NC(=O)C4CC4)nc3cn2)c(OC2CN(C)C2)cn1 [Example 654, N-[6-[2-methyl-5-(1-methylazetidin-3-yl)oxy-4-pyridyl]imidazo[1,2-a]pyrazin-2-yl]cyclopropanecarboxamide] | 0.0743
Cc1cc(-c2ccn3nc(NC(=O)C4CC4)cc3c2)c(OC[C@](C)(O)C2CC2)cn1 (single isomer, unassigned) [Example 193, (*R)—N-(5-(5-(2-cyclopropyl-2-hydroxypropoxy)-2-methylpyridin-4-yl)pyrazolo[1,5-a]pyridin-2-yl)cyclopropanecarboxamide] | 0.0234
Cc1cc(Nc2cc3cc(-c4cc(Cl)ncc4OC[C@]45CN[C@H](CO4)C5)ccn3n2)nc(C)n1 [Example 303, 5-[2-chloro-5-[[(1S,4S)-5-oxa-2-azabicyclo[2.2.1]heptan-4-yl]methoxy]-4-pyridyl]-N-(2,6-dimethylpyrimidin-4-yl)pyrazolo[1,5-a]pyridin-2-amine] | 0.000971
Cc1cncc(Nc2cc3cc(-c4cc(OCC(F)F)ncc4OCC(C)(C)C#N)ccn3n2)n1 [Example 696, 3-[[6-(2,2-difluoroethoxy)-4-[2-[(6-methylpyrazin-2-yl)amino]pyrazolo[1,5-a]pyridin-5-yl]-3-pyridyl]oxy]-2,2-dimethyl-propanenitrile] | 0.0821
Cc1cc(-c2ccn3nc(Nc4cc(C)nc(C)n4)cc3c2)c(OC[C@@](C)(O)C(F)(F)F)cn1 (single isomer, unassigned) [Example 264, (*R)-3-[[4-[2-[(2,6-dimethylpyrimidin-4-yl)amino]pyrazolo[1,5-a]pyridin-5-yl]-6-methyl-3-pyridyl]oxy]-1,1,1-trifluoro-2-methyl-propan-2-ol] | 0.0348
Cc1cc(-c2ccn3nc(Nc4cc(C)nc(C)n4)cc3c2)c(OC[C@]2(C)CCCO2)cn1 (single isomer, unassigned) [Example 232, (*S)—N-(2,6-dimethylpyrimidin-4-yl)-5-[2-methyl-5-[(2-methyltetrahydrofuran-2-yl)methoxy]-4-pyridyl]pyrazolo[1,5-a]pyridin-2-amine] | 0.0245
Cc1cc(-c2ccn3nc(Nc4cc(C)nc(C)n4)cc3c2)c(OCC(C)(O)C(F)(F)F)cn1 (single isomer, unassigned) [Example 263, (*S)-3-[[4-[2-[(2,6-dimethylpyrimidin-4-yl)amino]pyrazolo[1,5-a]pyridin-5-yl]-6-methyl-3-pyridyl]oxy]-1,1,1-trifluoro-2-methyl-propan-2-ol] | 0.00844
CC#Cc1cc(-c2ccn3nc(NC(=O)C4CC4)cc3c2)c(O[C@H]2C[C@H](N)C2)cn1 [Example 435, N-(5-(5-((1r,3r)-3-aminocyclobutoxy)-2-(prop-1-yn-1-yl)pyridin-4-yl)pyrazolo[1,5-a]pyridin-2-yl)cyclopropanecarboxamide] | < 0.000847
Cc1cc(-c2ccn3nc(Nc4cc(C)nc(C)n4)cc3c2)c(OC[C@H]2CCS(=O)(=O)C2)cn1 (single isomer, unassigned) [Example 363, (*R)—N-(2,6-dimethylpyrimidin-4-yl)-5-[5-[(1,1-dioxothiolan-3-yl)methoxy]-2-methyl-4-pyridyl]pyrazolo[1,5-a]pyridin-2-amine] | 0.0035
CC#Cc1cc(-c2ccn3nc(NC(=O)C4CC4)cc3c2)c(O[C@H]2CCNC2)cn1 [Example 280, N-[5-[2-prop-1-ynyl-5-[(3S)-pyrrolidin-3-yl]oxy-4-pyridyl]pyrazolo[1,5-a]pyridin-2-yl]cyclopropanecarboxamide] | 0.0032
Cc1cc(-c2ccn3nc(NC(=O)C4CC4)cc3c2)c(O[C@H]2CNC2(C)C)cn1 [Example 510, N-[5-[5-[(3S)-2,2-dimethylazetidin-3-yl]oxy-2-methyl-4-pyridyl]pyrazolo[1,5-a]pyridin-2-yl]cyclopropanecarboxamide] | 0.0614
Cc1cc(-c2ccn3nc(NC(=O)C4CC4)cc3c2)c(OC[C@@H](N)c2ccccc2)cn1 (single isomer, unassigned) [Example 467] | 0.0304
Cn1ccc(Nc2cc3cc(-c4cc(C#N)cnc4OC[C@@H]4CNCCO4)ccn3n2)n1 [Example 564, 5-[2-[(1-methylpyrazol-3-yl)amino]pyrazolo[1,5-a]pyridin-5-yl]-6-[[(2S)-morpholin-2-yl]methoxy]pyridine-3-carbonitrile] | 0.00339
Cc1cc(-c2ccn3nc(Nc4cc(C)c(=O)[nH]n4)cc3c2)c(OCC(C)(C)O)cn1 [Example 208, 3-[[5-[5-(2-hydroxy-2-methyl-propoxy)-2-methyl-4-pyridyl]pyrazolo[1,5-a]pyridin-2-yl]amino]-5-methyl-1H-pyridazin-6-one] | 0.00856
Cc1cc(Nc2cc3cc(-c4cc(OC(F)F)ncc4OCC(C)(C)C#N)ccn3n2)nn(C)c1=O [Example 684, 3-[[6-(difluoromethoxy)-4-[2-[(1,5-dimethyl-6-oxo-pyridazin-3-yl)amino]pyrazolo[1,5-a]pyridin-5-yl]-3-pyridyl]oxy]-2,2-dimethyl-propanenitrile] | 0.0102
